Common to all, as to type: cell-based
The target of experiment [1] is T1, Cannabinoid receptor 1 (Homo sapiens, UniProt P21554). As to the kind of experiment: Allosteric modulation of human recombinant CB1 receptor expressed in HEK293 cells assessed as stimulation of [3H]CP55940 binding.
Experiment [2] has as its target T2, Cannabinoid receptor 2 (Homo sapiens, UniProt P34972). Nature of the experiment: Allosteric modulation of human recombinant CB2 receptor expressed in HEK293 cells assessed as inhibition of [3H]CP55940 binding at 10 uM.
In experiment [3] the target is T1, Cannabinoid receptor 1. Nature of the experiment: Allosteric modulation of human recombinant CB1 receptor expressed in HEK293 cells assessed as stimulation of [3H]CP55940 binding at 10 uM.
In experiment [4] the target is T2, Cannabinoid receptor 2. Nature of the experiment: Allosteric modulation of human recombinant CB2 receptor expressed in HEK293 cells assessed as inhibition of [3H]CP55940 binding.
Experiment [5] has as its target T1, Cannabinoid receptor 1. Nature of the experiment: Allosteric modulation of human recombinant CB1 receptor expressed in HEK293 cells assessed as inhibitor of [3H]CP55940 binding at 10 uM.
Experiment [6] has as its target T1, Cannabinoid receptor 1. As to the kind of experiment: Allosteric modulation of human recombinant CB1 receptor expressed in HEK293 cells assessed as inhibition of [3H]CP55940 binding.
Experiment [7] deals with T2, Cannabinoid receptor 2. As to the kind of experiment: Allosteric modulation of human recombinant CB2 receptor expressed in HEK293 cells assessed as stimulation of [3H]CP55940 binding at 10 uM.
The target in experiment [8] is T2, Cannabinoid receptor 2. As to the kind of experiment: Allosteric modulation of human recombinant CB2 receptor expressed in HEK293 cells assessed as stimulation of [3H]CP55940 binding.
The target in experiment [9] is T1, Cannabinoid receptor 1. Nature of the experiment: Allosteric modulation of human recombinant CB1 receptor expressed in HEK293 cells assessed as inhibition of [3H]CP55940 binding at 25 uM.

Molecules are shown by their SMILES. pEC50, pIC50: −log10 of the molar value.

T2 sequence (P34972 whole entry): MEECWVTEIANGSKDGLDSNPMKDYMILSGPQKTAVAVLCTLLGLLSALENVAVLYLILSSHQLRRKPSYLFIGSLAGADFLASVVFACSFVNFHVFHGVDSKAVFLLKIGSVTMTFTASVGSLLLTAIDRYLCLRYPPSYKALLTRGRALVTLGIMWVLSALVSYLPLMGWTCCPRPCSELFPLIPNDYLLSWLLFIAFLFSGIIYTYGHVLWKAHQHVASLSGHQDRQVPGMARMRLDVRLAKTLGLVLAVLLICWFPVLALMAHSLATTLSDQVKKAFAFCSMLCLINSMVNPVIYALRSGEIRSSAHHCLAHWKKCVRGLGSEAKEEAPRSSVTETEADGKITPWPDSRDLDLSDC
T1 sequence (P21554 whole entry): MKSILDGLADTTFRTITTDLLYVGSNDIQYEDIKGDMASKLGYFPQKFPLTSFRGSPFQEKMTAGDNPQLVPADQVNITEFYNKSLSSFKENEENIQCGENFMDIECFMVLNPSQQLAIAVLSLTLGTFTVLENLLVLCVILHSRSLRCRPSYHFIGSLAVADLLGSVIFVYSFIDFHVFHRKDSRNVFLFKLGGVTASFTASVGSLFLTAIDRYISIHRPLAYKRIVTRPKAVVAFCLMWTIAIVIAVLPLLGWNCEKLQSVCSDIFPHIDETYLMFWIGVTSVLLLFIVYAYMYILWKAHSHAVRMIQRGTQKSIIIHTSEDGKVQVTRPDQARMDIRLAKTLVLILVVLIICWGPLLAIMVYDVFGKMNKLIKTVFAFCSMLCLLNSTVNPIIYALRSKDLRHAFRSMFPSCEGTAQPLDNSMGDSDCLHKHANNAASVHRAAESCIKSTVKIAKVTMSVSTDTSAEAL

Turning to `CCc1c(C(=O)NCCc2ccc(NC)cc2)[nH]c2ccc(Cl)cc12`, the pEC50 (in general, the EC50 on a negative log10 scale, so that one unit is a factor of ten) on Cannabinoid receptor 1 [1] is 6.02. In addition, on Cannabinoid receptor 2 [2], the inhibition (as a rule, the drop in the measured response relative to a control, in per cent) worked out at 55.7%. Moreover, at Cannabinoid receptor 1 [3], the Activity was determined as 183%. Moreover, on Cannabinoid receptor 2 [4], the pIC50 (as a rule, the negative decadic logarithm of the IC50, by convention in mol/L) is 5.04.

Turning to `CCc1c(C(=O)NCCc2ccc(C)cc2)[nH]c2ccc(Cl)cc12`, the pEC50 on Cannabinoid receptor 1 [1] was 6.26. In addition, the inhibition on Cannabinoid receptor 2 [2] amounted to 29%. For the same compound, the Activity at Cannabinoid receptor 1 [3] amounted to 189%. At Cannabinoid receptor 2 [4], the pIC50 was less than 5.00.

Turning to `O=C(NCCc1ccc(Cl)cc1)c1cc2cc(Cl)ccc2[nH]1`, the pEC50 at Cannabinoid receptor 1 [1] was less than 5.00. The inhibition at Cannabinoid receptor 2 [2] was 11.1%. Besides, the Activity at Cannabinoid receptor 1 [3] was 115%. For the same compound, the pIC50 at Cannabinoid receptor 2 [4] is less than 5.00.

Turning to `CC(O)c1c(C(=O)NCCc2ccc(N3CCCCC3)cc2)[nH]c2ccc(Cl)cc12` (racemic), the pEC50 at Cannabinoid receptor 1 [1] is 5.07. For the same compound, the inhibition at Cannabinoid receptor 2 [2] was determined as 33.1%. On Cannabinoid receptor 1 [3], the Activity worked out at 180%. In addition, the pIC50 at Cannabinoid receptor 2 [4] is less than 5.00.

As for `CCc1c(C(=O)OCCc2ccc([N+](=O)[O-])cc2)[nH]c2ccc(Cl)cc12`, the results for the inhibition at Cannabinoid receptor 1 [5] and on Cannabinoid receptor 2 [2] were 24.7% and 16.8%, respectively. Moreover, the pIC50 at Cannabinoid receptor 1 [6] and on Cannabinoid receptor 2 [4] was less than 5.00 throughout.

For the compound `CCc1c(C(=O)NCCc2ccc(N(C)C)cc2)[nH]c2ccc(Cl)cc12`, the pEC50 on Cannabinoid receptor 1 [1] was 7.30. Moreover, the inhibition at Cannabinoid receptor 2 [2] stood at 22.8%. Moreover, the Activity at Cannabinoid receptor 1 [3] was 227%. Also, the pIC50 at Cannabinoid receptor 2 [4] was less than 5.00.

With `CCc1c(C(=O)NCCc2ccc(F)cc2)[nH]c2ccc(Cl)cc12`, the pEC50 on Cannabinoid receptor 1 [1] is less than 5.00. In addition, the inhibition at Cannabinoid receptor 2 [2] came to 37.7%. On Cannabinoid receptor 1 [3], the Activity is 112%. Further, the pIC50 at Cannabinoid receptor 2 [4] is less than 5.00.

`CCc1c(C(=O)NCCc2ccc(Cl)cc2)[nH]c2ccc(Cl)cc12`: the pEC50 on Cannabinoid receptor 1 [1] is 6.12. Also, the inhibition on Cannabinoid receptor 2 [2] came out at 48.9%. Besides, on Cannabinoid receptor 1 [3], the Activity came to 179%. Moreover, the pIC50 at Cannabinoid receptor 2 [4] was less than 5.00.

As to `CCc1c(C(=O)NCCc2ccc(N3CCCCC3)cc2)[nH]c2ccccc12`, on Cannabinoid receptor 1 [1], the pEC50 is 6.09. Besides, on Cannabinoid receptor 2 [2], the inhibition is 55.2%. Further, at Cannabinoid receptor 1 [3], the Activity worked out at 244%. Further, at Cannabinoid receptor 2 [4], the pIC50 is 5.05.

For the compound `Nc1ccc(CCNC(=O)c2cc3cc(Cl)ccc3[nH]2)cc1`, the results for the inhibition on Cannabinoid receptor 1 [5] and at Cannabinoid receptor 2 [2] were 3.6% and 37.7%, respectively. The pIC50 on Cannabinoid receptor 1 [6] and on Cannabinoid receptor 2 [4] was less than 5.00 each time.

As for `CCc1c(C(=O)NCCc2ccc(N3CCN(C)CC3)cc2)[nH]c2ccc(Cl)cc12`, on Cannabinoid receptor 1 [1], the pEC50 is less than 5.00. For the same compound, the inhibition on Cannabinoid receptor 2 [2] was found to be 66.7%. For the same compound, the Activity at Cannabinoid receptor 1 [3] is 132%. Further, the pIC50 at Cannabinoid receptor 2 [4] was 5.16.

For the compound `CNc1ccc(CCNC(=O)c2cc3cc(Cl)ccc3[nH]2)cc1`, the inhibition on Cannabinoid receptor 1 [5] is 3.8%; on Cannabinoid receptor 2 [2], 43.7%. For the same compound, the pIC50 on Cannabinoid receptor 1 [6] and at Cannabinoid receptor 2 [4] was less than 5.00 each time.

As for `CCc1c(C(=O)NCCc2ccc(N3CCCC3)cc2)[nH]c2ccc(Cl)cc12`, the Activity at Cannabinoid receptor 2 [7] came to 135%; at Cannabinoid receptor 1 [3] it was 134%. Besides, the pEC50 on Cannabinoid receptor 1 [1] and at Cannabinoid receptor 2 [8] was less than 5.00 each time.

In the case of `CCc1c(C(=O)OCCc2ccc(N(C)C)cc2)[nH]c2ccc(Cl)cc12`, the inhibition on Cannabinoid receptor 1 [5] amounted to 19.6%; on Cannabinoid receptor 2 [2], 65.7%. Further, the pIC50 on Cannabinoid receptor 1 [6] was less than 5.00; on Cannabinoid receptor 2 [4] it was 5.25.

Take `O=C(NCCc1ccc([N+](=O)[O-])cc1)c1cc2cc(Cl)ccc2[nH]1`: on Cannabinoid receptor 1 [1], the pEC50 was less than 5.00. Further, at Cannabinoid receptor 2 [2], the inhibition is 32.7%. Also, at Cannabinoid receptor 1 [3], the Activity was determined as 141%. Further, at Cannabinoid receptor 2 [4], the pIC50 was less than 5.00.

With `CCc1c(C(=O)NCCc2ccc(N3CCCCC3)cc2)[nH]c2ccc(Cl)cc12`, the pEC50 at Cannabinoid receptor 1 [1] is 6.85. In addition, the inhibition at Cannabinoid receptor 2 [2] stood at 20.6%. Besides, the Activity on Cannabinoid receptor 1 [3] was 244%. On Cannabinoid receptor 2 [4], the pIC50 was less than 5.00.

On to `O=C(NCCc1ccc(N2CCCCC2)cc1)c1cc2cc(Cl)ccc2[nH]1`, for which, at Cannabinoid receptor 1 [1], the pEC50 was 7.05. Moreover, on Cannabinoid receptor 2 [2], the inhibition was found to be 37.9%. On Cannabinoid receptor 1 [3], the Activity came out at 207%. The pIC50 on Cannabinoid receptor 2 [4] was less than 5.00.

Regarding `Cc1c(C(=O)NCCc2ccc(N3CCCCC3)cc2)[nH]c2ccc(Cl)cc12`, the Activity worked out at 111% on Cannabinoid receptor 2 [7] and 243% on Cannabinoid receptor 1 [3]. Also, the results for the pEC50 on Cannabinoid receptor 1 [1] and on Cannabinoid receptor 2 [8] were 6.64 and less than 5.00, respectively.

Turning to `CCc1c(C(=O)NCCc2ccc([N+](=O)[O-])cc2)[nH]c2ccc(Cl)cc12`, the negative-log EC50 (pEC50) on Cannabinoid receptor 1 [1] was 6.44. In addition, on Cannabinoid receptor 2 [2], the inhibition was found to be 0%. Further, the Activity at Cannabinoid receptor 1 [3] was 242%. The pIC50 at Cannabinoid receptor 2 [4] is less than 5.00.

Take `CCc1c(C(=O)NCCc2ccc(N)cc2)[nH]c2ccc(Cl)cc12`: the negative-log EC50 (pEC50) on Cannabinoid receptor 1 [1] is less than 5.00. Besides, at Cannabinoid receptor 2 [2], the inhibition stood at 31.1%. On Cannabinoid receptor 1 [3], the Activity was determined as 145%. The pIC50 at Cannabinoid receptor 2 [4] was less than 5.00.

Turning to `CN(C)c1ccc(CCNC(=O)c2cc3cc(Cl)ccc3[nH]2)cc1`, at Cannabinoid receptor 1 [1], the pEC50 is 5.82. The inhibition on Cannabinoid receptor 2 [2] turned out to be 42.1%. For the same compound, the Activity at Cannabinoid receptor 1 [3] amounted to 171%. The pIC50 at Cannabinoid receptor 2 [4] was less than 5.00.

`CCc1c(C(=O)OCCc2ccc(N3CCCCC3)cc2)[nH]c2ccc(Cl)cc12`: the inhibition stood at 18% at Cannabinoid receptor 1 [5] and 52.7% on Cannabinoid receptor 2 [2]. In addition, the pIC50 on Cannabinoid receptor 1 [6] is less than 5.00; on Cannabinoid receptor 2 [4], 5.08.

`CC(=O)c1c(C(=O)NCCc2ccc(N3CCCCC3)cc2)[nH]c2ccc(Cl)cc12`: the pIC50 at Cannabinoid receptor 1 [6] and at Cannabinoid receptor 2 [4] was less than 5.00 each time. Besides, the inhibition at Cannabinoid receptor 2 [2] came to 7.9%; on Cannabinoid receptor 1 [9], 19.9%.
